# Test results taken from patent US8658646B2, “Pyrrolopyrazine kinase inhibitors” (Hoffmann-LaRoche Inc., priority 2011, dated 2014).
# Target: T1, JAK3: Recombinant human kinase domain (Homo sapiens, UniProt P52333)
# T1 construct: JAK3: Recombinant human kinase domain from Millipore (Cat #14-629) or prepared; purchased Millipore 14-629
# Assay: Determination of IC50 of Janus Kinase (JAK) inhibition, radioactive end-point 33P-ATP assay, JAK3
# Assay type: biochemical
# Conditions: ATP 1.5 uM, peptide 50 uM, 20 minutes, read-out: JAK3-INHIB-DR/v1~NO ADDITIVE~Enzyme_Conc = 100
# T1 sequence (P52333 822-1111 limits assumed): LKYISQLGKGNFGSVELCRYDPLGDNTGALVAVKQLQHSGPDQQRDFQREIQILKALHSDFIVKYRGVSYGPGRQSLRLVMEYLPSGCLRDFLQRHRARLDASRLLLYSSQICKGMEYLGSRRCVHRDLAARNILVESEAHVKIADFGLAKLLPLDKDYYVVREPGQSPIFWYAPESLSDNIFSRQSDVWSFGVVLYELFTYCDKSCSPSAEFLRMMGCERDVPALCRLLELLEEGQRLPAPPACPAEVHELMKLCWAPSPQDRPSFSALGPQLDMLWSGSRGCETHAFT
row,SMILES,IC50 [nM]
1,"Cn1nc(-c2cnc3[nH]cc(C(=O)N[C@H](c4ccc(Br)cc4)C(F)(F)F)c3n2)c2ccc(F)cc21 [Example I-211, 2-(6-Fluoro-1-methyl-1H-indazol-3-yl)-5H-pyrrolo[2,3-b]pyrazine-7-carboxylic acid [(R)-1-(4-bromo-phenyl)-2,2,2-trifluoro-ethyl)-amide]",> 1000
2,"COC[C@H](C)NC(=O)c1c[nH]c2ncc(-c3nn(C)c4cc(F)c(F)cc34)nc12 [Example I-212, 2-(5,6-Difluoro-1-methyl-1H-indazol-3-yl)-5H-pyrrolo[2,3-b]pyrazine-7-carboxylic acid ((S)-2-methoxy-1-methyl-ethyl)-amide]",2.12
3,"Cn1nc(-c2cnc3[nH]cc(C(=O)N[C@@H]4CCN(Cc5ccccc5)C4)c3n2)c2ccc(F)cc21 [Example I-213, 2-(6-Fluoro-1-methyl-1H-indazol-3-yl)-5H-pyrrolo[2,3-b]pyrazine-7-carboxylic acid ((R)-1-benzyl-pyrrolidin-3-yl)-amide]",76.1
4,"Cn1nc(-c2cnc3[nH]cc(C(=O)N[C@@H]4CCN(CC#N)C4)c3n2)c2ccc(F)cc21 [Example I-214, 2-(6-Fluoro-1-methyl-1H-indazol-3-yl)-5H-pyrrolo[2,3-b]pyrazine-7-carboxylic acid ((R)-1-cyanomethyl-pyrrolidin-3-yl)-amide]",27.3
5,"C[C@@H](NC(=O)c1c[nH]c2ncc(-c3nn(C)c4cc(F)ccc34)nc12)c1cccc(Br)c1 [Example I-215, 2-(6-Fluoro-1-methyl-1H-indazol-3-yl)-5H-pyrrolo[2,3-b]pyrazine-7-carboxylic acid [(R)-1-(3-bromo-phenyl)-ethyl]-amide]",27.3
6,"C[C@@H](NC(=O)c1c[nH]c2ncc(-c3nn(C)c4cc(F)ccc34)nc12)c1ccc(Br)cc1 [Example I-216, 2-(6-Fluoro-1-methyl-1H-indazol-3-yl)-5H-pyrrolo[2,3-b]pyrazine-7-carboxylic acid [(R)-1-(4-bromo-phenyl)-ethyl]-amide]",13
7,"C[C@@H](NC(=O)c1c[nH]c2ncc(-c3nn(C)c4cc(F)ccc34)nc12)c1cccc(C#N)c1 [Example I-217, 2-(6-Fluoro-1-methyl-1H-indazol-3-yl)-5H-pyrrolo[2,3-b]pyrazine-7-carboxylic acid [(R)-1-(3-cyano-phenyl)-ethyl]-amide]",23.2
8,"C[C@@H](NC(=O)c1c[nH]c2ncc(-c3nn(C)c4cc(F)ccc34)nc12)c1ccc(C#N)cc1 [Example I-218, 2-(6-Fluoro-1-methyl-1H-indazol-3-yl)-5H-pyrrolo[2,3-b]pyrazine-7-carboxylic acid [(R)-1-(4-cyano-phenyl)-ethyl]-amide]",14.7
9,"C[C@@H](COCC#N)NC(=O)c1c[nH]c2ncc(-c3nn(C)c4cc(F)ccc34)nc12 [Example I-219, 2-(6-Fluoro-1-methyl-1H-indazol-3-yl)-5H-pyrrolo[2,3-b]pyrazine-7-carboxylic acid ((S)-2-cyanomethoxy-1-methyl-ethyl)-amide]",3.04
10,"C[C@@H](NC(=O)c1c[nH]c2ncc(-c3cnc4ccccn34)nc12)C(=O)N1CC(C#N)C1 [Example I-220, 2-Imidazo[1,2-a]pyridin-3-yl-5H-pyrrolo[2,3-b]pyrazine-7-carboxylic acid [(R)-2-(3-cyano-azetidin-1-yl)-1-methyl-2-oxo-ethyl]-amide]",2.17
11,"COC[C@H](C)NC(=O)c1c[nH]c2ncc(-c3cnc4cc(C#N)ccn34)nc12 [Example I-222, 2-(7-Cyano-imidazo[1,2-a]pyridin-3-yl)-5H-pyrrolo[2,3-b]pyrazine-7-carboxylic acid ((S)-2-methoxy-1-methyl-ethyl)-amide]",9.9
12,"C[C@@H](NC(=O)c1c[nH]c2ncc(-n3cnc4cc(Cl)ccc43)nc12)C(=O)N1CC(C#N)C1 [Example I-225, 2-(5-Chloro-benzoimidazol-1-yl)-5H-pyrrolo[2,3-b]pyrazine-7-carboxylic acid [(R)-2-(3-cyano-azetidin-1-yl)-1-methyl-2-oxo-ethyl]-amide]",144
13,"C[C@@H](NC(=O)c1c[nH]c2ncc(-c3nn(CC(=O)O)c4cc(Cl)ccc34)nc12)C(=O)N1CC(C#N)C1 [Example I-226, (6-Chloro-3-{7-[(R)-2-(3-cyano-azetidin-1-yl)-1-methyl-2-oxo-ethylcarbamoyl]-5H-pyrrolo[2,3-b]pyrazin-2-yl}-indazol-1-yl)-acetic acid]",8.1
14,"C[C@@H](NC(=O)c1c[nH]c2ncc(-c3nn(CC(=O)N(C)C)c4cc(Cl)ccc34)nc12)C(=O)N1CC(C#N)C1 [Example I-227, 2-(6-Chloro-1-dimethylcarbamoylmethyl-1H-indazol-3-yl)-5H-pyrrolo[2,3-b]pyrazine-7-carboxylic acid [(R)-2-(3-cyano-azetidin-1-yl)-1-methyl-2-oxo-ethyl]-amide]",4.17
15,"C[C@@H](NC(=O)c1c[nH]c2ncc(-c3nn(CC(=O)N4CCOCC4)c4cc(Cl)ccc34)nc12)C(=O)N1CC(C#N)C1 [Example I-228, 2-[6-Chloro-1-(2-morpholin-4-yl-2-oxo-ethyl)-1H-indazol-3-yl]-5H-pyrrolo[2,3-b]pyrazine-7-carboxylic acid [(R)-2-(3-cyano-azetidin-1-yl)-1-methyl-2-oxo-ethyl]-amide]",2.11
16,"C[C@@H](NC(=O)c1c[nH]c2ncc(-c3nn(CCN(C)C)c4cc(Cl)ccc34)nc12)C(=O)N1CC(C#N)C1 [Example I-229, 2-[6-Chloro-1-(2-dimethylamino-ethyl)-1H-indazol-3-yl]-5H-pyrrolo[2,3-b]pyrazine-7-carboxylic acid [(R)-2-(3-cyano-azetidin-1-yl)-1-methyl-2-oxo-ethyl]-amide]",3.34
17,"C[C@@H](NC(=O)c1c[nH]c2ncc(-c3nn(CCN(C)C)c4cc(Cl)ccc34)nc12)C(=O)N1CC(C#N)C1 [Example I-230, 2-[6-Chloro-1-(2-dimethylamino-ethyl)-1H-indazol-3-yl]-5H-pyrrolo[2,3-b]pyrazine-7-carboxylic acid [(R)-2-(3-cyano-azetidin-1-yl)-1-methyl-2-oxo-ethyl]-amide]",12.3
18,"C[C@@H](NC(=O)c1c[nH]c2ncc(-c3nn(CCN4CCOCC4)c4cc(Cl)ccc34)nc12)C(=O)N1CC(C#N)C1 [Example I-231, 2-[6-Chloro-1-(2-morpholin-4-yl-ethyl)-1H-indazol-3-yl]-5H-pyrrolo[2,3-b]pyrazine-7-carboxylic acid [(R)-2-(3-cyano-azetidin-1-yl)-1-methyl-2-oxo-ethyl]-amide]",2.08
19,"C[C@@H](NC(=O)c1c[nH]c2ncc(-c3nn(CCc4ccccn4)c4cc(Cl)ccc34)nc12)C(=O)N1CC(C#N)C1 [Example I-232, 2-[6-Chloro-1-(2-pyridin-2-yl-ethyl)-1H-indazol-3-yl]-5H-pyrrolo[2,3-b]pyrazine-7-carboxylic acid [(R)-2-(3-cyano-azetidin-1-yl)-1-methyl-2-oxo-ethyl)-amide]",3.56
20,"C[C@@H](NC(=O)c1c[nH]c2ncc(-c3nn(Cc4ccccn4)c4cc(Cl)ccc34)nc12)C(=O)N1CC(C#N)C1 [Example I-233, 2-(6-Chloro-1-pyridin-2-ylmethyl-1H-indazol-3-yl)-5H-pyrrolo[2,3-b]pyrazine-7-carboxylic acid [(R)-2-(3-cyano-azetidin-1-yl)-1-methyl-2-oxo-ethyl]-amide]",1.29
